Measured values: ChEMBL document CHEMBL4819069, “Discovery of multifunctional anti-Alzheimer's agents with a unique mechanism of action including inhibition of the enzyme butyrylcholinesterase and γ-aminobutyric acid transporters” (Eur J Med Chem, 2021)
Active and inactive are the calls of the source. The rule behind the calls is not given here.

How the values were obtained:
[1] = molecular target: Amyloid-beta precursor protein (Homo sapiens) (UniProt P05067); assay: Inhibition of HFIP-pretreated amyloid beta (1 to 42) (unknown origin) aggregation at 10 uM after 36 to 48 hrs by thioflavin-T fluorescence assay relative to control; settings: time 36-48 hrs
Chain of Amyloid-beta precursor protein (Homo sapiens) (P05067 whole entry): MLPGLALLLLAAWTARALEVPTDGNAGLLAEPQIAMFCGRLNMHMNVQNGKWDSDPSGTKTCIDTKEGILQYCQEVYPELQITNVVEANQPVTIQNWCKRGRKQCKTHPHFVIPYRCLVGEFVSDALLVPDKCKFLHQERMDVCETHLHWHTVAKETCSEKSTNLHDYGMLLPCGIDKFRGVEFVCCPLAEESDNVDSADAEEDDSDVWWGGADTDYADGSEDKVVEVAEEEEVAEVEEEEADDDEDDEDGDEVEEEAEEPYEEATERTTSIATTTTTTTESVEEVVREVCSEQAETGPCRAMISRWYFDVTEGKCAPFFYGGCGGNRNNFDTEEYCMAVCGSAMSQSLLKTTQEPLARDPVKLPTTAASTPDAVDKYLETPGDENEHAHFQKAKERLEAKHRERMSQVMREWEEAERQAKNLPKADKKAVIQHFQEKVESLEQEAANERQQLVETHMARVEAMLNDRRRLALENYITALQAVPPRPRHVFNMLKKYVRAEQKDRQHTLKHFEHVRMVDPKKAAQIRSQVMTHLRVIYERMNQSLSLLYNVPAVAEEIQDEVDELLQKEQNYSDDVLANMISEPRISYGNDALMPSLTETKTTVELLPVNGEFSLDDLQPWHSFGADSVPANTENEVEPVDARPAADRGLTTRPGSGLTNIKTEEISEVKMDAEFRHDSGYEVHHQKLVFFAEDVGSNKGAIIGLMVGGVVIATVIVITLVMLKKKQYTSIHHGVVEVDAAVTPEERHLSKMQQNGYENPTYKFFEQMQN

[2] = molecular target: Acetylcholinesterase (Electrophorus electricus) (UniProt O42275); assay: Inhibition of electric eel AChE at 10 uM using acetylthiocholine as substrate preincubated for 5 mins followed by substrate addition and measured after 5 mins by Ellman's method relative to control; settings: time 10.0 min
Chain of Acetylcholinesterase (Electrophorus electricus) (O42275 24-633 limits assumed): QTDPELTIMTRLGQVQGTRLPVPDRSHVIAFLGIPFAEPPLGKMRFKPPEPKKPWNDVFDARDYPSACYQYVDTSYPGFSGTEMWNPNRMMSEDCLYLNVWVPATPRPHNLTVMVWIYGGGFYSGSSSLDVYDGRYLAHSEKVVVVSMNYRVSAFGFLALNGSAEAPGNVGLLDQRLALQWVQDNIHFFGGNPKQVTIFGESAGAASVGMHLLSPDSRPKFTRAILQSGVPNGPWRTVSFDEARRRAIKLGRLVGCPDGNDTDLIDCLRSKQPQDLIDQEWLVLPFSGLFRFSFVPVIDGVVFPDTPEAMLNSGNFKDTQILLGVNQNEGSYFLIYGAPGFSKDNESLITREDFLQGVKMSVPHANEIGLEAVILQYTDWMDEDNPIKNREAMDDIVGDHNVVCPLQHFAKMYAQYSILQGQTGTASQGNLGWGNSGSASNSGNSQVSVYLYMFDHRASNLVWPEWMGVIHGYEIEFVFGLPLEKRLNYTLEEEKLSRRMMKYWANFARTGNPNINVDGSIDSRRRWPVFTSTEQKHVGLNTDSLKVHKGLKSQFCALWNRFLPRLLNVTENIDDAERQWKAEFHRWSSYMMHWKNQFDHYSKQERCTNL

Beta-secretase 1 = Beta-secretase 1 (Homo sapiens, UniProt P56817); settings: dose 50.0 µM, time 60.0 min
[3] = molecular target: Cholinesterase (Equus caballus) (UniProt P81908); assay: Noncompetitive inhibition of equine serum BuChE assessed as decrease in Vmax with constant Km using varying concentrations of BTC as substrate by Lineweaver-burk and Cornish-Bowden plot analysis
Chain of Cholinesterase (Equus caballus) (P81908 whole entry): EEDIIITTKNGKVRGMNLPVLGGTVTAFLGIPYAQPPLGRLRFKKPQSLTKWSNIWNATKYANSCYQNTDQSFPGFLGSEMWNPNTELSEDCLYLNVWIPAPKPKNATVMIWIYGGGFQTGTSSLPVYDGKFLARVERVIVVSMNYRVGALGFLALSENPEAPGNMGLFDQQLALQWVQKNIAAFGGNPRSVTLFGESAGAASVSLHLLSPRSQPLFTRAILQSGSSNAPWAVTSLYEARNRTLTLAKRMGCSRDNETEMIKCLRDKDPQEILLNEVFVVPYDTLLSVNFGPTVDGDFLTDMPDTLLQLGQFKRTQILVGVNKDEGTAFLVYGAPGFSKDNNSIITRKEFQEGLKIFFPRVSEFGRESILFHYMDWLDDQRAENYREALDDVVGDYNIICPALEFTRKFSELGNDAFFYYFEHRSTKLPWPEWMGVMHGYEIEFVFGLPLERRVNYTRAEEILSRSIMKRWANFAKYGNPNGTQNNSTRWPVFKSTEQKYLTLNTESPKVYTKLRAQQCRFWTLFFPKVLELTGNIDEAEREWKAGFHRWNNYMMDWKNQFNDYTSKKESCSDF

[4] = molecular target: T1, Sodium- and chloride-dependent GABA transporter 1 (Mus musculus, UniProt P31648); assay: Inhibition of mouse GAT1 expressed in HEK293 cell line assessed as reduction in [3H]GABA uptake incubated for 10 mins; format: cell-based
[5] = molecular target: T2, GABA transporter 4 (Mus musculus) (UniProt P31650); assay: Inhibition of mouse GAT3 expressed in HEK293 cell line assessed as reduction in [3H]GABA uptake at 100 uM incubated for 10 mins relative to control; format: cell-based
T2 sequence (whole entry): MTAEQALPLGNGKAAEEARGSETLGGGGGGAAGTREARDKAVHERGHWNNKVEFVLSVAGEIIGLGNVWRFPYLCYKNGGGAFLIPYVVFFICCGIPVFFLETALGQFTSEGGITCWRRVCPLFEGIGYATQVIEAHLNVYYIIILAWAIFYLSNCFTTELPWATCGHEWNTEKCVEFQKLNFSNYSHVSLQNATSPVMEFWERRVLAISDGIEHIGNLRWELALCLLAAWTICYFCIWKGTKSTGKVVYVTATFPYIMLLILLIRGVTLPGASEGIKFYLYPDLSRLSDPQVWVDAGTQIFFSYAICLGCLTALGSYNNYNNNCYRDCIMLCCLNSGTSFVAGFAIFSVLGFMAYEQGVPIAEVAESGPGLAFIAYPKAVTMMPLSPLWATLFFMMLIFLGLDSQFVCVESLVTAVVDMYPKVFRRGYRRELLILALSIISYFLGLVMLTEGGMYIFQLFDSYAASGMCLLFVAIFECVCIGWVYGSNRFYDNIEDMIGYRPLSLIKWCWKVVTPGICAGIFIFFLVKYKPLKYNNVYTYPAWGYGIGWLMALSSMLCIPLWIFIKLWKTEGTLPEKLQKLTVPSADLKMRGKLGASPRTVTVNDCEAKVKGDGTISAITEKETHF

GABA transporter 4 = molecular target: T3, GABA transporter 4 (Mus musculus, UniProt P31650); assay: Inhibition of mouse GAT4 expressed in HEK293 cell line assessed as reduction in [3H]GABA uptake incubated for 10 mins; format: cell-based
T3 sequence (P31650 whole entry): T2 sequence (whole entry)

[6] = molecular target: Sodium- and chloride-dependent GABA transporter 1 (Mus musculus) (UniProt P31648); assay: Inhibition of NO711 binding to mouse GAT1 expressed in HEK cell membranes at 100 uM incubated for 40 mins in presence of NO711 by LC-ESI-MS/MS analysis relative to control; settings: Membrane
[7] = Neurotoxicity against mouse HT22 cells assessed as cell viability at 10 uM incubated for 24 hrs by MTT assay; format: cell-based, HT-22; settings: ht-22, 24 h, 10 µM
[8] = Neurotoxicity against mouse HT22 cells assessed as cell viability at 30 uM incubated for 24 hrs by MTT assay; format: cell-based, HT-22; settings: ht-22, 24 h, 30 µM
[9] = Hepatotoxicity in human HepG2 cells at 50 to 100 uM incubated for 72 hrs by MTS assay; format: cell-based; settings: hepg2, 72 h, dose 50-100 µM
[10] = Hepatotoxicity in human HepG2 cells at 1 uM incubated for 72 hrs by MTS assay; format: cell-based; settings: hepg2, 72 h
[11] = Hepatotoxicity in human HepG2 cells at 10 uM incubated for 72 hrs by MTS assay; format: cell-based; settings: hepg2, 72 h
[12] = Metabolic stability in human liver microsomes assessed as parent compound remaining after 120 mins in presence of NADPH regeneration system by UPLC/MS anlaysis; format: ADME, Microsome; settings: read-out: Stabilty
Cytochrome P450 3A4 = Cytochrome P450 3A4 (Homo sapiens, UniProt P08684); assay: Inhibition of CYP3A4 (unknown origin) at 10 uM; format: ADME
Chain of Cytochrome P450 3A4 (P08684 whole entry): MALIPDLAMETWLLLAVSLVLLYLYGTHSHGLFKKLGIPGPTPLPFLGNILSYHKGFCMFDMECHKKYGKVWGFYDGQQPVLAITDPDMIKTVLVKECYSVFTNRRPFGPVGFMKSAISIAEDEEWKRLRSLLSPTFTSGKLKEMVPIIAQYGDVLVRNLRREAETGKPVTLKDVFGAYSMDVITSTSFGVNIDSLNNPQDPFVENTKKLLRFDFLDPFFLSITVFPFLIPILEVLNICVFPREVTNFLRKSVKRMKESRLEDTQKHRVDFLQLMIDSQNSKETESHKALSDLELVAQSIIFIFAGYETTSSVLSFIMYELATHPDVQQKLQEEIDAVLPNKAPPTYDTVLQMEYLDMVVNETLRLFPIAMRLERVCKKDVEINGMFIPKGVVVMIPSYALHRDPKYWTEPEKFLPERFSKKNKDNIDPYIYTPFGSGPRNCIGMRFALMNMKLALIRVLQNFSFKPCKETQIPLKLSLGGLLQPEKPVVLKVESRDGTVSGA

Cytochrome P450 2D6 = Cytochrome P450 2D6 (Homo sapiens, UniProt P10635); assay: Inhibition of CYP2D6 (unknown origin) at 10 uM; format: ADME
Chain of Cytochrome P450 2D6 (P10635 whole entry): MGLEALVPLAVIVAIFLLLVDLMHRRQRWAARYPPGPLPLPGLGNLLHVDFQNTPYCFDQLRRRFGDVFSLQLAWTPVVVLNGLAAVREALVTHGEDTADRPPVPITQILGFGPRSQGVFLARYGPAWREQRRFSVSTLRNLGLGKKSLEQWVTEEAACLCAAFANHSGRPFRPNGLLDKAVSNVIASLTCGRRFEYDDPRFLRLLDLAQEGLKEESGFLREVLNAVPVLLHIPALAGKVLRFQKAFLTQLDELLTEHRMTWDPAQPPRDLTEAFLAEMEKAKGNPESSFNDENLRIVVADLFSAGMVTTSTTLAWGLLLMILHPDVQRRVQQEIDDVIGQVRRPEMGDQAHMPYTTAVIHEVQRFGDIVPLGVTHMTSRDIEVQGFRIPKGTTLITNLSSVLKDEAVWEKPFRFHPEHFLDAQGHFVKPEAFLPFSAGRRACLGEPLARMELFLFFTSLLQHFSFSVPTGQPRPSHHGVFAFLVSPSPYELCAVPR

Cholinesterase [13] = molecular target: Cholinesterase (Equus caballus, UniProt P81908)
Chain of Cholinesterase (Equus caballus, UniProt P81908) (P81908 whole entry): as the sequence (P81908 whole entry) above
Description: Inhibition of equine serum BuChE using butyrylthiocholine as substrate preincubated for 5 mins followed by substrate addition and measured after 5 mins by Ellman's method

Cholinesterase [14] = molecular target: Cholinesterase (Homo sapiens, UniProt P06276)
Chain of Cholinesterase (Homo sapiens, UniProt P06276) (P06276 whole entry): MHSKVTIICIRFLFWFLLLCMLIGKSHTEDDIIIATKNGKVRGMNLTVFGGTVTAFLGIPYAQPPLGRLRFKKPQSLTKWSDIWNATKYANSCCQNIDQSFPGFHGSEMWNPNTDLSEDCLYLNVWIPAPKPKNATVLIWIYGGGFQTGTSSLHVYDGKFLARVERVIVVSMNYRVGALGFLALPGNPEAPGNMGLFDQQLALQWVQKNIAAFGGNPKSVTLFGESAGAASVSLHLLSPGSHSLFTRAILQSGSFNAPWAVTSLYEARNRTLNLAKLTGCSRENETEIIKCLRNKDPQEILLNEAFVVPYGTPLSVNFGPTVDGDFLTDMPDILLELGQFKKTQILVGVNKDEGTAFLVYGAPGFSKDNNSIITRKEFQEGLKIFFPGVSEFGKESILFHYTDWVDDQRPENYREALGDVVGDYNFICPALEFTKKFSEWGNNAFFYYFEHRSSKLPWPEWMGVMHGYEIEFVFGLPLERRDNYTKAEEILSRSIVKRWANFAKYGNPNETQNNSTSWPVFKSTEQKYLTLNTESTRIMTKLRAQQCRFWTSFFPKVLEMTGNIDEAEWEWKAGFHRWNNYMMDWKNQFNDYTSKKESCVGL
Description: Inhibition of human BuchE using butyrylthiocholine as substrate preincubated for 5 mins followed by substrate addition and measured after 5 mins by Ellman's method

[15] = molecular target: T4, Sodium- and chloride-dependent GABA transporter 3 (Homo sapiens, UniProt P48066); assay: Inhibition of human GAT3 expressed in COS-7 cells assessed as reduction in [2H6]GABA uptake preincubated for 25 mins followed by [2H6]GABA addition and measured after 6 mins by LC-MS/MS analysis; format: cell-based
T4 sequence (P48066 whole entry): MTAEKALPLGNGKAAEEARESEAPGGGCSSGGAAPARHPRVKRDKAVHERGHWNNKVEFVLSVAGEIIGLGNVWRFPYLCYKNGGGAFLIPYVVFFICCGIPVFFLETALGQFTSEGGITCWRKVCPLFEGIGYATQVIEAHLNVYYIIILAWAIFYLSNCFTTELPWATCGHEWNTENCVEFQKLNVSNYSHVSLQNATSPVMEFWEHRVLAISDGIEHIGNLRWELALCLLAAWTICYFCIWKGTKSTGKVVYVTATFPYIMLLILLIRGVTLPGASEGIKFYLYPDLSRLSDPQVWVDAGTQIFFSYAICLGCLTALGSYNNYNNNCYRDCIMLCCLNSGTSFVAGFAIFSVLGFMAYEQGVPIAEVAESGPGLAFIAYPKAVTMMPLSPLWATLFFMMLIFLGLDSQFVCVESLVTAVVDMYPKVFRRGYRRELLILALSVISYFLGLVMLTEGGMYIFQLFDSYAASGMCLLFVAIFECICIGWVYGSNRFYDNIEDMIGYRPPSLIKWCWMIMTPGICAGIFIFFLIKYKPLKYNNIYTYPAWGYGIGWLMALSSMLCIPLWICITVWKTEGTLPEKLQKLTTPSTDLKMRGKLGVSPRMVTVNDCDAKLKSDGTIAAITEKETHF

[16] = molecular target: T1, Sodium- and chloride-dependent GABA transporter 1; assay: Inhibition of NO711 binding to mouse GAT1 expressed in HEK cell membranes incubated for 40 mins in presence of NO711 by LC-ESI-MS/MS analysis; design: species or system Membrane

Structure (SMILES)	inhibition [1]	inhibition [2]	inhibition (Beta-secretase 1)	inhibition [3]	IC50 [4]	inhibition [5]	IC50 (GABA transporter 4)	inhibition [6]	Activity [7]	Activity [8]	Activity [9]	Activity [10]	Activity [11]	remaining at 2 h [12]	inhibition (INH) (Cytochrome P450 3A4)	inhibition (INH) (Cytochrome P450 2D6)	IC50 (Cholinesterase [13])	IC50 (Cholinesterase [14])	IC50 [15]	IC50 [16]
CC(C)(C)CNC[C@@H](O)[C@H](Cc1ccccc1)NC(=O)C(c1ccccc1)c1ccccc1	20.5%	< 10%	40%	Active	25.1 µM	54%	30.9 µM	71%	Non-Toxic	Toxic	Toxic	Non-Toxic	Non-Toxic	79.2%	Active	Active	0.1 µM	0.45 µM	–	–
COc1ccc(C(OCCN2CCC[C@H](C(=O)O)C2)(c2ccc(OC)cc2)c2ccc(OC)cc2C)cc1	–	–	–	–	–	–	–	–	–	–	–	–	–	–	–	–	–	–	3.16 µM	–
COc1ccc(C(/C=C/CN2CCC[C@H](C(=O)O)C2)(c2ccc(OC)cc2)c2ccc(OC)cc2)cc1	–	–	–	–	–	–	–	–	–	–	–	–	–	–	–	–	–	–	1.59 µM	46.8 µM
